Assay results reported in ChEMBL document CHEMBL3232825 (J Med Chem, 2014).
≈ marks a conversion by molar mass, not a printed value.

Tests used:
[1] = target: T1, Heat shock protein HSP 90-beta (Homo sapiens, UniProt P08238)
Endoplasmin = Endoplasmin (Homo sapiens, UniProt P14625)
[2] = target: T2, Heat shock protein 75 kDa, mitochondrial (Homo sapiens, UniProt Q12931)
T2 sequence (Q12931 whole entry): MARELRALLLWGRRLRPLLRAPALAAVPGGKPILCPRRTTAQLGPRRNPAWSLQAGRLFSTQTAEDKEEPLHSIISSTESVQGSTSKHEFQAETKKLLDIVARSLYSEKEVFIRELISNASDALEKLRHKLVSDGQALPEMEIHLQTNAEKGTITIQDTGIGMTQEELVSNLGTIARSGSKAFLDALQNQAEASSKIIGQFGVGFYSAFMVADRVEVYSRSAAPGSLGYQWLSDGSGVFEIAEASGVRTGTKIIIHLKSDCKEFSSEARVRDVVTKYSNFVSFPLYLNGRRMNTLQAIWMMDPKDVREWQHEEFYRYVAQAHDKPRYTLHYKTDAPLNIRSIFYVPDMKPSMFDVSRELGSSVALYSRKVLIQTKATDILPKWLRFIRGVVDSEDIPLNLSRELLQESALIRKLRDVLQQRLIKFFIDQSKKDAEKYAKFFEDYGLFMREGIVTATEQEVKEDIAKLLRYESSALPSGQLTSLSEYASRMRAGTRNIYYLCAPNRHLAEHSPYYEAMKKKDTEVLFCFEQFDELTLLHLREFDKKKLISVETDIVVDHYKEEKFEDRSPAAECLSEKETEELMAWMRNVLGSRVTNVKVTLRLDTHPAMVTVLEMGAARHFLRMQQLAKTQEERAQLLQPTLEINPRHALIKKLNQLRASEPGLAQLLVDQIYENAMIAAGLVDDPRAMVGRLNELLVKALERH

[3] = Aqueous solubility of the compound at pH 7.4; type: physicochemical
[4] = target: T1, Heat shock protein HSP 90-beta; remark: listed apart in the source
in vivo [5] = conditions: Sprague-Dawley, rat, plasma, iv, 1 mg/kg
in vivo [6] = conditions: Sprague-Dawley, rat, plasma, sc, 10 mg/kg
in vivo [7] = conditions: Sprague-Dawley, rat, iv, 1 mg/kg
in vivo [8] = conditions: Sprague-Dawley, rat, iv, 1 mg/kg; remark: listed apart in the source
in vivo [9] = conditions: Sprague-Dawley, rat, iv, 1 mg/kg; remark: listed apart in the source
in vivo [10] = conditions: Sprague-Dawley, rat, sc, 10 mg/kg
in vivo [11] = conditions: Sprague-Dawley, rat, brain and plasma, sc, 10 mg/kg

T1 sequence (P08238 whole entry): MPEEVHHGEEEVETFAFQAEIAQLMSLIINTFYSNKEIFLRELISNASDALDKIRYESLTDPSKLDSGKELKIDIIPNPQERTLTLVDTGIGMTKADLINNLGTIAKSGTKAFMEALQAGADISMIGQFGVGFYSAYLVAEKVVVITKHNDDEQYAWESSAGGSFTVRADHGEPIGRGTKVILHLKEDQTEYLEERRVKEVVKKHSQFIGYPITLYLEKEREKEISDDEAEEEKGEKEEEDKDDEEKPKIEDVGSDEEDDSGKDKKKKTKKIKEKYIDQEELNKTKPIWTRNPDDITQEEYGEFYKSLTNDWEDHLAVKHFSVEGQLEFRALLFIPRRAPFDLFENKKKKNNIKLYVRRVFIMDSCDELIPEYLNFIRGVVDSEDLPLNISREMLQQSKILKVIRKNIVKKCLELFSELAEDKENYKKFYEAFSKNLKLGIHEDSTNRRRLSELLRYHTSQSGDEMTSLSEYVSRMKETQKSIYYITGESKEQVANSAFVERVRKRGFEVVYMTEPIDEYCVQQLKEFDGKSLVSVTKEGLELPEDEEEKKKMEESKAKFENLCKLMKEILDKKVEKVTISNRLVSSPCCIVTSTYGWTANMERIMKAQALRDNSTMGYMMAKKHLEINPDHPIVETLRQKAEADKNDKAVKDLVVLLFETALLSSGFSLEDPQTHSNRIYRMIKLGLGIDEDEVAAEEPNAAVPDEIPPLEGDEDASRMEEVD
Sequence of Endoplasmin (P14625 whole entry): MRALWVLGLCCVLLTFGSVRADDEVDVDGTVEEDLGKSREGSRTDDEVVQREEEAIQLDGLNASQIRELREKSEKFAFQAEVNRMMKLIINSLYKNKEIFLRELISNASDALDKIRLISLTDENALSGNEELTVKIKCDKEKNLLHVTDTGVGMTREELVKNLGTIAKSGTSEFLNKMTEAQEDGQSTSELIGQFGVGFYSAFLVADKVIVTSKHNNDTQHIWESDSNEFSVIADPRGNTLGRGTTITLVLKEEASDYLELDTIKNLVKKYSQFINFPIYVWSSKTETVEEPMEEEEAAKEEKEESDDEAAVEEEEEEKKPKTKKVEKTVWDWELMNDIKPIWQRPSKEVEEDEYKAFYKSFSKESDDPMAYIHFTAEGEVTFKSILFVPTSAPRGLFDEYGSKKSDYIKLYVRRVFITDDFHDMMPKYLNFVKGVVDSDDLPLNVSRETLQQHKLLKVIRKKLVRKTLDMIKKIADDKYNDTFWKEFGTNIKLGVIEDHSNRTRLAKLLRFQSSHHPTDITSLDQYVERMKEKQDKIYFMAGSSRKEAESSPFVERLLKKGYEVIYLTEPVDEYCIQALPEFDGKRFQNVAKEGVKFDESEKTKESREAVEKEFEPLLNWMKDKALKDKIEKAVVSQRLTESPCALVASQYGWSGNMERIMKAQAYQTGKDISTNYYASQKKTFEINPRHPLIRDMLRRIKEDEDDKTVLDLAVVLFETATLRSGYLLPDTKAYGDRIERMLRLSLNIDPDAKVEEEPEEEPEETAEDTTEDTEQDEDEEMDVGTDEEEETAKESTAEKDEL

| Ki [1] | Ki (Endoplasmin) | Ki [2] | IC50 [4] | Compound | other results |
| --- | --- | --- | --- | --- | --- |
| > 10000 nM | > 10000 nM | > 10000 nM |  | CC1(C)CC(=O)c2c(n(-c3ccc(C(N)=O)cc3)c3cccnc23)C1 |  |
| > 10000 nM | > 10000 nM | > 10000 nM |  | CC1(C)CC(=O)c2c(n(-c3ccc(C(N)=O)cc3)c3cnccc23)C1 |  |
|  |  |  |  | CN1CCc2c3c(n(-c4ccc(C(N)=O)c(N[C@H]5CCOC5)c4)c2C1)CC(C)(C)CC3=O | solubility [3]: > 200 µM |
| > 10000 nM | > 10000 nM | > 10000 nM | > 10000 nM | CN1CCc2c3c(n(-c4ccc5c(c4)CNC5=O)c2C1)CC(C)(C)CC3=O |  |
| > 10000 nM | > 10000 nM | > 10000 nM | > 10000 nM | CN1CCc2c3c(n(-c4ccc5c(c4)CCCNC5=O)c2C1)CC(C)(C)CC3=O |  |
| 40 nM |  |  | 530 nM | CC1(C)CC(=O)c2c3c(n(-c4ccc(C(N)=O)c(N[C@H]5CCOC5)c4)c2C1)CCCC3 | solubility [3]: 27 µM (≈ 11.4 µg/mL) |
|  | > 10000 nM | > 10000 nM |  | Cc1cn(-c2cc3c(c(CC(C)C)c2)C(=O)NCC3)c2c1C(=O)CC(C)(C)C2 | AUC (in vivo [5]): 640 ng·h/mL; AUC (in vivo [6]): 3580 ng·h/mL; clearance (in vivo [7]): 25.7 mL/min/kg; Vd (in vivo [8]): 4.08 L/kg; half-life (in vivo [9]): 2.2 h; half-life (in vivo [10]): 11.6 h; Kp at 2 h (in vivo [11]): 0.5 |
| 5 nM | > 10000 nM | > 10000 nM | 36 nM | Cc1cn(-c2cc3c(c(C4CCCCC4)c2)C(=O)NCC3)c2c1C(=O)CC(C)(C)C2 |  |
| 3 nM | 2400 nM | > 10000 nM | 19 nM | Cc1cn(-c2cc3c(c(C4CCOCC4)c2)C(=O)NCC3)c2c1C(=O)CC(C)(C)C2 |  |
| 39 nM | > 10000 nM | > 10000 nM | 195 nM | Cc1cn(-c2cc3c(c(C4CCC4)c2)C(=O)NCC3)c2c1C(=O)CC(C)(C)C2 |  |
| 56 nM | > 10000 nM | > 10000 nM | 1000 nM | CCCCc1cc(-n2cc(C)c3c2CC(C)(C)CC3=O)cc2c1C(=O)NCC2 |  |
| 140 nM | > 10000 nM | > 10000 nM | 1700 nM | Cc1cn(-c2cc3c(c(C(C)(C)C)c2)C(=O)NCC3)c2c1C(=O)CC(C)(C)C2 |  |
| 120 nM | > 10000 nM | > 10000 nM | 480 nM | Cc1cn(-c2cc3c(c(Cc4ccccc4)c2)C(=O)NCC3)c2c1C(=O)CC(C)(C)C2 |  |
| 15 nM | > 10000 nM | > 10000 nM | 230 nM | Cc1cn(-c2cc3c(c(-c4ccccc4)c2)C(=O)NCC3)c2c1C(=O)CC(C)(C)C2 |  |
| 10 nM | > 10000 nM | > 10000 nM | 80 nM | Cc1cn(-c2cc3c(c(-c4ccc(F)cc4)c2)C(=O)NCC3)c2c1C(=O)CC(C)(C)C2 |  |
| 20 nM | > 10000 nM | > 10000 nM | 81 nM | Cc1cn(-c2cc3c(c(-c4cccc(F)c4)c2)C(=O)NCC3)c2c1C(=O)CC(C)(C)C2 |  |
| 40 nM | > 10000 nM | > 10000 nM | 280 nM | COc1ccc(-c2cc(-n3cc(C)c4c3CC(C)(C)CC4=O)cc3c2C(=O)NCC3)cc1 |  |
